# Measured values reported in patent US20260034218A1, “ALLEVIATING GRAFT VERSUS HOST DISEASE USING ENGINEERED INKT CELLS” (The Regents of the University of California, priority 2022, published 2026).
# Assays:
# [1] = test system: HSC-iNKT cells; assay: GCV in vitro killing assay; type: cell-based, human; details: GCV 0-50 μM, 4 days
# Procedure: (§1) To increase the safety profile of HSC-iNKT cell product, we included an sr39TK PET imaging/suicide gene in the lentiviral vector, which allows for the in vivo monitoring of these cells using PET imaging and the elimination of these cells through ganciclovir (GCV)-induced depletion in case of an adverse event (FIGS S1A and 1B in Li et al.).
# For GCV in vitro killing assays, HSC-iNKT cells were cultured in C10 medium in the presence of titrated amount of GCV (0-50 μM) for 4 days; live HSC-iNKT cells were then counted using a hematocytometer (VWR) via Trypan Blue staining (Fisher Scientific).
# [2] = test system: HSC-iNKT cells; assay: GCV in vivo killing assay, NSG xenograft mouse model; design: species or system human cells in NSG mice; details: GCV i.p. 50 mg/kg per day, 5 days
# Procedure: as §1
# GCV in vivo killing assay was performed using an NSG xenograft mouse model. NSG mice received i.v. injection of 1×10^7 HSC-iNKT cells on day 0, followed by i.p. injection of GCV for 5 consecutive days (50 mg/kg per injection per day). On day 5, mice were terminated. Multiple tissues (i.e., blood, spleen, liver, and lung) were collected and processed for flow cytometry analysis to detect tissue-infiltrating HSC-iNKT cells (identified as iNKT TCR^+CD45^+), following established protocols (Li et al., 2021b; Y. R. Li et al., 2022; Zhu et al., 2019).
structure (smiles),measurement,setting,value
"Nc1nc(O)c2ncn(COC(CO)CO)c2n1 [GCV, Ganciclovir]",killing of HSC-iNKT cells in cell culture,[1],effective killing
same,"depletion of HSC-iNKT cells from blood, liver, spleen and lung",[2],efficient depletion
